Experimental data: patent US20240254138A1, “TRICYCLIC PYRIMIDINES AS CYCLIN-DEPENDENT KINASE 7 (CDK7) INHIBITORS” (JANSSEN PHARMACEUTICA NV, priority 2021, published 2024)
Read-outs that look alike come from different tables or passages of the source.

Assays:
[1] = target: CDK7/cyclinH/MAT1 trimeric complex (Homo sapiens, UniProt P50613); experiment: In vitro CDK7 assay, potency of irreversible covalent inhibitors (kinact/KI), coupled PK/LDH ADP readout at 340 nm
[2] = test system: RNA Polymerase II Serine 5 phosphorylation in A549 cells overexpressing CDK7-mutant (C312S); experiment: Imaging-based cellular RNA PolII Ser5 phosphorylation assay in A549 cells overexpressing CDK7-mutant (C312S); format: cell-based, human; settings: RNA PolII Ser5 phosphorylation, averaged over all measurements; for IC50: Homo sapiens, A549, A549 cells overexpressing CDK7-mutant (C312S), read-out: CDK7_A549 mutant hCDK7(pIC50) (converted)
In short: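 Readout was automated imaging of anti-phospho-Ser5 Rpb1 CTD immunofluorescence, with IC50 fitted to % control versus concentration. Cells were A549 stably overexpressing non-covalently targetable CDK7 C312S alongside wild-type, exposed to compound 3 h at 37 °C. DMSO and 10 μM reference compound served as controls.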

[3] = test system: RNA Polymerase II Serine 5 phosphorylation (Rpb1 CTD, downstream substrate of CDK7) in A549 cells; experiment: Imaging-based cellular RNA PolII Ser5 phosphorylation assay in A549 cells; format: cell-based, human; settings: wild-type CDK7, RNA PolII Ser5 phosphorylation, averaged over all measurements; for IC50: Homo sapiens, A549, A549 cells, read-out: CDK7_A549 Wild-type CDK7 (pIC50) (converted)
In short: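 IC50 derived by fitting % control (DMSO high, 10 μM reference low) against concentration, with Hill slope. Readout: high-content imaging of phospho-Ser5 Rpb1 CTD antibody staining in fixed, permeabilized A549 cells exposed to compound 3 h after 20 h culture in 1% FBS DMEM.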

[4] = CDK7 (20 nM enz.) (KI, μM), 20 nM enzyme
[5] = read-out: CDK7 (20 nM enz.) (kinact, s^−1), 20 nM enzyme
[6] = read-out: CDK7 (20 nM enz.) (kinact/KI, M^−1*s^−1), 20 nM enzyme
[7] = read-out: CDK7 (20 nM enz.) (kobs/[I], M^−1*s^−1), 20 nM enzyme

CDK7/cyclinH/MAT1 trimeric complex, sequence (P50613 whole entry): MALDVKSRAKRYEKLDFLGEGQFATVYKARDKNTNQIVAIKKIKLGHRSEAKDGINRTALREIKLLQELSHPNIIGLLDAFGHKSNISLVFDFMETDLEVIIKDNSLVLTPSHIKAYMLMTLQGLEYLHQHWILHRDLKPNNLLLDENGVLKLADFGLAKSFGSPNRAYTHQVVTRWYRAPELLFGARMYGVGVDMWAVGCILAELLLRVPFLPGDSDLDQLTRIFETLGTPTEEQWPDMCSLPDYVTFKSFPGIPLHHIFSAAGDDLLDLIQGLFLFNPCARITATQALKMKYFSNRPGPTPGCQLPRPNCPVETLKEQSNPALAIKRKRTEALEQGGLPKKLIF
CDK7/cyclinH/MAT1 trimeric complex, sequence (P51946 whole entry partner): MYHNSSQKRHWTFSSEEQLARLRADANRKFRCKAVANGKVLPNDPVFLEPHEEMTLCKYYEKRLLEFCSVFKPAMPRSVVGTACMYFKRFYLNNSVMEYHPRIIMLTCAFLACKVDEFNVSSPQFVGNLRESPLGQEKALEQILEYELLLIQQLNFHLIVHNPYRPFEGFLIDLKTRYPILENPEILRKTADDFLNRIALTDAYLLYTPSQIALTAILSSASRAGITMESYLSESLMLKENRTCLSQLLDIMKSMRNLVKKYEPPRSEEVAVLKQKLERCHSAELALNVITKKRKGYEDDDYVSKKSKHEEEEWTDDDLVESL
CDK7/cyclinH/MAT1 trimeric complex, sequence (P51948 whole entry partner): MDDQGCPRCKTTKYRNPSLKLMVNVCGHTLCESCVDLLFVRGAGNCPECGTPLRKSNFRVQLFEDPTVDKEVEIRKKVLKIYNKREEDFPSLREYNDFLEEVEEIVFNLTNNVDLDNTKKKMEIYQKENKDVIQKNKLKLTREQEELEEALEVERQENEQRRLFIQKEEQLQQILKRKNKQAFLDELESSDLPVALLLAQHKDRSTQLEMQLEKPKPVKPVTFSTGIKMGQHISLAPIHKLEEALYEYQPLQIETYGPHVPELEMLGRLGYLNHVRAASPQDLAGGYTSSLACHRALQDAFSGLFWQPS

| SMILES | Ki [1, 4] [µM] | kinact [1, 5] [s⁻¹] | kinact/KI [1, 6] [M⁻¹ s⁻¹] | IC50 [2] [nM] | IC50 [3] [nM] | kinact/KI [1, 7] [M⁻¹ s⁻¹] | CDK7 (20 nM enz.) (kinact, s^−1) ([1]; 20 nM enzyme) [s⁻¹] | CDK7 (20 nM enz.) (kinact/KI, M^−1*s^−1) ([1]; 20 nM enzyme) [M⁻¹ s⁻¹] | CDK7_A549 mutant hCDK7(pIC50) ([2]; A549 cells overexpressing CDK7-mutant (C312S)) | CDK7_A549 Wild-type CDK7 (pIC50) ([3]; A549 cells) | Ki ([1]; CDK7 (KI(μM)), […], 1 mM ATP, room temperature, averaged values over all measurements) [µM] | kinact ([1]; read-out: CDK7 (kinact, s^−1), kinact = maximal rate of inactivation, 1 mM ATP, room temperature, averaged values over all measurements) [s⁻¹] | kinact/KI ([1]; read-out: CDK7 (kinact/KI, M^−1*s^−1), potency of irreversible covalent inhibitors, 1 mM ATP, room temperature, averaged values over all measurements) [M⁻¹ s⁻¹] |
| --- | --- | --- | --- | --- | --- | --- | --- | --- | --- | --- | --- | --- | --- |
| C=CC(=O)N1CCC(C2CN(c3cc4c(c(C)n3)OCc3c(N5CCOCC5)ccnc3N4)C2)CC1 [Compound 439] | 0.401 | 1.01e-05 | 25.2 | > 10000 | 1100 |  |  |  |  |  |  |  |  |
| C=CC(=O)N1CC[C@H](N2CC(c3cc4c(c(C#N)n3)O[C@@H](C)c3c(N5CCOCC5)ccnc3N4)C2)C1 (single isomer, unassigned) [Compound 508] |  |  | 6.21 | > 10000 | 2880 |  |  |  |  |  |  |  |  |
| C=CC(=O)N1CC(N2CCC(c3ccc4c(c3)Nc3nccc(N5CCOCC5)c3[C@@H](C)O4)CC2)C1 (single isomer, unassigned) [Compound 89] |  |  |  | > 10000 | 60.3 | 923 |  |  |  |  |  |  |  |
| C=CC(=O)N1CC(N2CC(c3ccc4c(c3)Nc3nccc(-c5cnn(C)c5)c3C(C)O4)C2)C1 (stereo not drawn) [Compound 197] | 0.134 | 7.96e-05 | 596 | > 10000 | 123 |  |  |  |  |  |  |  |  |
| C#CCN(C(=O)C=C)c1ccc(C(=O)Nc2ccc3c(c2)Nc2nccc(C4CCOCC4)c2CO3)cc1 [Compound 17] |  |  |  | > 10000 | 126 | 1470 |  |  |  |  |  |  |  |
| C=CC(=O)N1CC(N2CCC(c3ccc4c(c3)Nc3nccc(N5CCOC[C@@H]5C)c3CO4)CC2)C1 (single isomer, unassigned) [Compound 32] |  |  |  | > 10000 | 398 |  |  |  |  |  | 0.177 | 0.000102 | 578 |
| C=CC(=O)N1CC(N2CCC(c3ccc4c(c3)Nc3nccc(N5CCS(=O)(=NC)CC5)c3CO4)CC2)C1 [Compound 84] | 0.191 | 6.74e-05 | 354 | > 10000 | 575 |  |  |  |  |  |  |  |  |
| C=CC(=O)N1CCC(N2CC(c3cc(F)c4c(c3)Nc3nccc(C5CCOCC5)c3[C@H](C)O4)C2)CC1 (single isomer, unassigned) [Compound 155] | 2.09 | 4.59e-05 | 22 | > 10000 | 501 |  |  |  |  |  |  |  |  |
| C=CC(=O)N1CC(N2CCC(c3cc4c(cc3CO)OCc3c(N5CCOCC5)ccnc3N4)CC2)C1 [Compound 139] | 0.515 | 6.73e-05 | 131 | > 10000 | 661 |  |  |  |  |  |  |  |  |
| C=CC(=O)N1CC[C@@H](N2CC(c3cc4c(c(C)n3)O[C@H](C)c3c(N5CCOCC5)ccnc3N4)C2)C1 (single isomer, unassigned) [Compound 457] | 0.214 | 0.000104 | 485 | > 10000 | 91.2 |  |  |  |  |  |  |  |  |

More lines, in order of falling Ki [1, 4], values ahead:

| Ki [1, 4] [µM] | kinact [1, 5] [s⁻¹] | kinact/KI [1, 6] [M⁻¹ s⁻¹] | IC50 [2] [nM] | IC50 [3] [nM] | kinact/KI [1, 7] [M⁻¹ s⁻¹] | CDK7 (20 nM enz.) (kinact, s^−1) ([1]; 20 nM enzyme) [s⁻¹] | CDK7 (20 nM enz.) (kinact/KI, M^−1*s^−1) ([1]; 20 nM enzyme) [M⁻¹ s⁻¹] | CDK7_A549 mutant hCDK7(pIC50) ([2]; A549 cells overexpressing CDK7-mutant (C312S)) | CDK7_A549 Wild-type CDK7 (pIC50) ([3]; A549 cells) | Ki ([1]; CDK7 (KI(μM)), […], 1 mM ATP, room temperature, averaged values over all measurements) [µM] | kinact ([1]; read-out: CDK7 (kinact, s^−1), kinact = maximal rate of inactivation, 1 mM ATP, room temperature, averaged values over all measurements) [s⁻¹] | kinact/KI ([1]; read-out: CDK7 (kinact/KI, M^−1*s^−1), potency of irreversible covalent inhibitors, 1 mM ATP, room temperature, averaged values over all measurements) [M⁻¹ s⁻¹] | SMILES |
| --- | --- | --- | --- | --- | --- | --- | --- | --- | --- | --- | --- | --- | --- |
| 0.0823 |  |  |  |  |  | 0.000126 | 1530.27 | 5.15 | 7.1 |  |  |  | C=CC(=O)N1CC[C@@H](N2CC(c3cc4c(c(C(F)(F)F)n3)OCc3c(N5CCOCC5)ccnc3N4)C2)C1 (single isomer, unassigned) [Compound 402] |
| 0.0823 | 1.52e-05 | 184 | 10200 | 427 |  |  |  |  |  |  |  |  | Cc1nc(C2CN(C3CCN(C(=O)/C=C/CN(C)C)CC3)C2)cc2c1OCc1c(-c3cnn(C)c3)ccnc1N2 [Compound 532] |
| 0.0692 | 2.87e-05 | 415 | 8710 | 257 |  |  |  |  |  |  |  |  | CC#CC(=O)N1CC[C@H](N2CC(c3cc4c(c(C5CC5)n3)OCc3c(N5CCOCC5)ccnc3N4)C2)C1 (single isomer, unassigned) [Compound 418] |
| 0.063 | 3.66e-05 | 581 | > 10000 | 69.2 |  |  |  |  |  |  |  |  | C=CC(=O)N1CC[C@H](N2CC(c3cc(C)c4c(c3)Nc3nccc(C5CCOCC5)c3CO4)C2)C1 (single isomer, unassigned) [Compound 193] |
| 0.0109 | 1.44e-05 | 1320 | 5370 | 141 |  |  |  |  |  |  |  |  | CC#CC(=O)N1CC(N2CC[C@H](c3cc4c(c(C)n3)O[C@H](C)c3c(N5CCOCC5)ccnc3N4)N(C)CC2)C1 (single isomer, unassigned) [Compound 525] |
